According to patent publication US9096591B2, “Tetracyclic compounds” (Medivation Technologies, Inc., priority 2007, dated 2015):

Key:
[1] = biological target: T1, human recombinant adrenergic α2B receptor (Homo sapiens, UniProt P18089); test: Adrenergic α2B radioligand binding ([3H]Rauwolscine); set-up: Inhibition of ligand binding, Adren. alpha2B: concentration or dose not given beside the values; details: percent inhibition of specific binding
T1 construct: expressed in transfected cells; host or cells: CHO-K1 cells
T1 sequence (P18089 1-450): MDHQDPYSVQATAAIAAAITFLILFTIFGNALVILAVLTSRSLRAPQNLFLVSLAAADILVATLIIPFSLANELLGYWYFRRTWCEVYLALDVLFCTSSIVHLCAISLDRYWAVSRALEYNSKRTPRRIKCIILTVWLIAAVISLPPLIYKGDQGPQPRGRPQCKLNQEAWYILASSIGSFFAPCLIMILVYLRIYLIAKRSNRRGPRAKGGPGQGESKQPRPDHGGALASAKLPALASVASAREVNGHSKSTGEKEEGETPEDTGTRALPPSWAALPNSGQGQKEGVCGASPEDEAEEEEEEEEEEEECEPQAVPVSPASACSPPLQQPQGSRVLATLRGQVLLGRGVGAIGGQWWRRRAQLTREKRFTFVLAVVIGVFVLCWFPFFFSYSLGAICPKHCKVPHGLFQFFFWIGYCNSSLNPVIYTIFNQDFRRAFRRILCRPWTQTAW
Procedure, shortened: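 Membranes from CHO-K1 cells expressing the receptor, in 50 mM Tris-HCl pH 7.4 with 12.5 mM MgCl2, 1 mM EDTA, 0.2% BSA, incubated with compounds and 2.5 nM [3H]Rauwolscine for 60 minutes at 25 °C.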

[2] = biological target: T2, human recombinant histamine H2 receptor (Homo sapiens, UniProt P25021); test: Histamine H2 radioligand binding ([125I]Aminopotentidine); details: percent inhibition of specific binding; screened at 1 μM; read-out: Inhibition of ligand binding, Hist. H2
T2 construct: expressed in transfected cells; host or cells: CHO-K1 cells
Procedure, shortened: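 Test compounds were assessed for their ability to displace radioligand from the human recombinant histamine H2 receptor. Non-specific binding was determined in the presence of 3 μM Tiotidine, and results were expressed as percent inhibition of specific binding, with 1% DMSO serving as the vehicle.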

[3] = biological target: T3, Serotonin (5-Hydroxytryptamine) 5-HT7 (Homo sapiens, UniProt P34969); test: Serotonin 5-HT7 radioligand binding ([3H]LSD); set-up: Inhibition of ligand binding, Ser. 5-HT7: concentration or dose not given beside the values; details: percent inhibition of specific binding
T3 construct: expressed in transfected cells; host or cells: CHO cells
Procedure: Lysergic acid diethylamide (LSD) for 2 hours at 25° C. […] Receptor proteins were filtered and washed, the filters were then counted to determine [^3H]LSD specifically bound. […] Biochemical assay results are presented as the percent inhibition of specific binding in Table 6.

[4] = biological target: T4, human recombinant adrenergic α1D receptor (Homo sapiens, UniProt P25100); test: Adrenergic α1D radioligand binding ([3H]Prozosin); set-up: Inhibition of ligand binding, Adren. alpha1D: concentration or dose not given beside the values; details: percent inhibition of specific binding
T4 construct: expressed in transfected cells; host or cells: HEK-293 cells
T4 sequence (P25100 1-572): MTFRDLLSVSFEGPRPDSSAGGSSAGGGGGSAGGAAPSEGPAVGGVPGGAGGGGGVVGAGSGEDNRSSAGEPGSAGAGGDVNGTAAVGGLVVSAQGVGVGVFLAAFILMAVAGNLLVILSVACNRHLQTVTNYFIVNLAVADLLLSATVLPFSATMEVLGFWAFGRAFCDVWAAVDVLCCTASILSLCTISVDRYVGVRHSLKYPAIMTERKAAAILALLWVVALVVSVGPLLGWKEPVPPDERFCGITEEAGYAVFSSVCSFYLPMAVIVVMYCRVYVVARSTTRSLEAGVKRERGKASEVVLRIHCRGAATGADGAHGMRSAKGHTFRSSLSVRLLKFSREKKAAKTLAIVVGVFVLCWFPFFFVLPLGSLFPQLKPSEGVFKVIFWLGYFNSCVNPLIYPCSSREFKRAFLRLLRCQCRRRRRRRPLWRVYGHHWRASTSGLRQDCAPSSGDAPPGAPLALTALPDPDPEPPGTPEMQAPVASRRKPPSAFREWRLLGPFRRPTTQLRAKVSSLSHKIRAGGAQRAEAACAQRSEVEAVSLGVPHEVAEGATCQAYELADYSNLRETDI
Procedure: Compounds of invention were incubated with 0.6 nM [^3H]Prozosin for 60 minutes at 25° C. Non-specific binding was estimated in the presence of 10 μM phentolamine. Receptor proteins were filtered and washed, the filters were then counted to determine [^3H]Prozosin specifically bound. […] Biochemical assay results are presented as the percent inhibition of specific binding in Table 6.

[5] = biological target: T5, human recombinant histamine H1 receptor (Homo sapiens, UniProt P35367); test: Histamine H1 radioligand binding ([3H]Pyrilamine); details: percent inhibition of specific binding; screened at 1 μM; read-out: Inhibition of ligand binding, Hist. H1
T5 construct: expressed in transfected cells; host or cells: CHO cells
Procedure, shortened: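 Receptor expressed in CHO cells, assayed in 50 mM Tris-HCl pH 7.4 with 2 mM MgCl2, 100 mM NaCl, 250 mM sucrose. Compounds tested at 1 μM in 1% DMSO; non-specific binding set with 1 μM pyrilamine. Filter-bound radioactivity counted; values are percent inhibition of specific binding.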

T5 sequence (P35367 whole entry): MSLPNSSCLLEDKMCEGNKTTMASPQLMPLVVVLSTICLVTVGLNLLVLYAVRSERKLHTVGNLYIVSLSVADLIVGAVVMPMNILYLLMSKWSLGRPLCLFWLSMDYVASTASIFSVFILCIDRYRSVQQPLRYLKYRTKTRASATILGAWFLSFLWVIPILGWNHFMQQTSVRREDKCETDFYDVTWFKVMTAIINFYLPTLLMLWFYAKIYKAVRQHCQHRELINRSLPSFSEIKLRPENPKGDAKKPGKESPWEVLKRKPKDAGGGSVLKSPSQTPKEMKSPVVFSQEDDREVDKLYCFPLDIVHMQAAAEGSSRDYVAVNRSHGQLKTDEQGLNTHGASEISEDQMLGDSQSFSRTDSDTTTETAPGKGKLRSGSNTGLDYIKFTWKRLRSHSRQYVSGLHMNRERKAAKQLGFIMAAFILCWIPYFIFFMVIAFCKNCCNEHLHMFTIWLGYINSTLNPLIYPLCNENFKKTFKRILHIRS
T3 sequence (P34969 whole entry): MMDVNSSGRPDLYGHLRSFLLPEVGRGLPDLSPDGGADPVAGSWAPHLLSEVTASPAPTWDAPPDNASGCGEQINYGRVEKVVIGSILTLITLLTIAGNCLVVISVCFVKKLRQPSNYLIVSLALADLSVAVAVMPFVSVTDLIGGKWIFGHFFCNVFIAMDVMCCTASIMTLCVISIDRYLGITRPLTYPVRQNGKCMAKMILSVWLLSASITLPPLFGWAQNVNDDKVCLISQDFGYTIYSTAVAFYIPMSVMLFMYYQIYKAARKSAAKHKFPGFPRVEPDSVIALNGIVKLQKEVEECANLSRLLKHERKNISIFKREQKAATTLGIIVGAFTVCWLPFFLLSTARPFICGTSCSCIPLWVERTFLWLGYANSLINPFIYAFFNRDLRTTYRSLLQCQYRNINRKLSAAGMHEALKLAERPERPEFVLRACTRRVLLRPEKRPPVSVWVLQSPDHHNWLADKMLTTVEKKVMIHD
T2 sequence (P25021 whole entry): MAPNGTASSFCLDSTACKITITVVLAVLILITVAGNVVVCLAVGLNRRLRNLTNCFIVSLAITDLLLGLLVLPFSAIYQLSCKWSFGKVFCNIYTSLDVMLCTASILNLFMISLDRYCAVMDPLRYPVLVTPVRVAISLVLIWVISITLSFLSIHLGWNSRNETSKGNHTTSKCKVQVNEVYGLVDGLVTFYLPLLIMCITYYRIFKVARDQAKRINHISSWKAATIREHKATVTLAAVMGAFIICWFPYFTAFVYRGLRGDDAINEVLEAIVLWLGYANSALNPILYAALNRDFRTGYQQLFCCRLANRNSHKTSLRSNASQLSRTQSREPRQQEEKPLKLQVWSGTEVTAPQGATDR

SMILES | Inhibition of ligand binding, Adren. alpha2B [1] | inhibition at 1 µM [2] | Inhibition of ligand binding, Ser. 5-HT7 [3] | Inhibition of ligand binding, Adren. alpha1D [4] | inhibition at 1 µM [5]
CN1CCc2c(c3c(Cl)cccc3n2CCC2CCCCC2)C1 [Compound 187, 9-chloro-5-(2-cyclohexylethyl)-2,3,4,5-tetrahydro-2-methyl-1H-pyrido[4,3-b]indole] | 57% | 69% | 77% | 15% | 64%
CN1CCc2c(c3cc(C(F)(F)F)ccc3n2CCc2ccccc2)C1 [Compound 80, 8-(trifluoromethyl)-2,3,4,5-tetrahydro-2-methyl-5-phenethyl-1H-pyrido[4,3-b]indole] | 105% | 71% | 92% | 75% | 89%
CN1CCc2c(c3cc(Cl)ccc3n2CCN2CCOCC2)C1 [Compound 186, 8-chloro-2,3,4,5-tetrahydro-2-methyl-5-(2-morpholinoethyl)-1H-pyrido[4,3-b]indole] | 79% | 25% | 57% | 41% | 97%
CCCc1ccc(CCn2c3c(c4cc(C)ccc42)CN(C)CC3)cn1 [Compound 452, 2,8-Dimethyl-5-[2-(6-propyl-pyridin-3-yl)-ethyl]-2,3,4,5-tetrahydro-1H-pyrido[4,3-b]indole] | 104% | 92% | 96% | 82% | 109%
